Data set [1] in a line: Solubility in water of the prepared product.
Data set [2] deals with rats. Description: Anti-inflammatory activity, carrageenin hind paw swelling. To be noted: 50mg/kg, oral administration and transdermal administration, Figure 4. It is filed as in vivo. The method, then:
Anti-inflammatory activity: 50 mg/kg of diethylaminoethyl acetylsalicylate.AcOH was administered orally or transdermally to rats and 50 mg/kg of aspirin was administered orally. 60 minutes later, a carrageenin solution was administered subcutaneously to the foot pads of the rats. The volume of the hind paw was measured at every hour after the administration of the carrageenin, and the rate of increase in the volume of the paw was calculated and designated as the rate of swelling(%).
(§1) • Figure 1: Cumulative amounts of acetylsalicylic acid (ASA), ethyl acetylsalicylate(E-ASA), and diethylaminoethyl acetylsalicylate.AcOH(DEAE-ASA) crossing isolated human skin tissue in Franz cells (n=5). […] In each case, the vehicle was pH 7.4 phosphate buffer (0.2 M). • Figure 2: Total plasma levels of salicylic acid (SA) after topical application of 300 mg of acetylsalicylic acid (ASA) or diethylaminoethyl acetylsalicylate.AcOH (DEAE-ASA) to the backs of hairless mice (n=5). • Figure 3. […] A is the control line. • Figure 4. […] A is the control line.
(Carrageenan injected into the paw causes an acute inflammation.)

Data set [3] can be described thus: In vivo penetration through the skin of intact hairless mice, plasma levels of salicylic acid by HPLC.
For data set [4], the system named is mice. Description: Analgetic activity, acetic acid writhing test. The format is in vivo. To be noted: for inhibition at 50 mg/kg / inhibition at 100 mg/kg: Mus musculus, po, read-out: % (rate of writhings inhibition). For orientation: An intraperitoneal irritant provokes the stretching counted in writhing tests.
Protocol: The number of writhings that occurred when mice were administered an acetic acid solution intraperitoneally were counted, and the rate of inhibition based on the control group was calculated. 42 mice were divided into 7 groups (6 mice each). Aspirin (ASA, 50 mg/kg and 100 g) was administered to groups B1 and B2 of mice and diethylaminoethyl acetylsalicylate.AcOH (DEAE-ASA, 50 mg and 100 mg/kg) was administered orally to groups C1 and C2. Diethylaminoethyl acetylsalicylate.AcOH (DEAE-ASA, 50 mg and 100 mg/kg) was administered transdermally to groups D1 and D2. The A group is the control group. The test compounds were administered to the mice 30 minutes before the acetic acid solution was administered.
The nature of data set [5]: Solubility in pH 7 phosphate buffer. To be noted: pH 7, aqueous buffer.
In data set [6] the test system is mice. Nature of the data set: Analgetic activity, prolongation of pain threshold of mouse tail (D'Amour-Smith Method). The format is in vivo. To be noted: versus 200mg/kg aspirin, Figure 3. The method, then: Analgetic activity: The prolongation time of pain the threshold of a mouse tail was determined in accordance with the D'Amour-Smith Method (J. Pharmacol. Exp. Ther., 72, 74(1941)).
as §1

The nature of data set [7]: Conversion of pro-drug in whole human blood diluted 20 times with pH 7.4 phosphate buffer, HPLC. To be noted: whole human blood diluted 20 times with pH 7.4 phosphate buffer (0.2M).
From the text: (§3) To determine how much the pro-drugs of acetylsalicylic acid were changed back to the drug itself or diethylaminoethyl salicylate, we diluted whole human blood 20 times with a pH 7.4 phosphate buffer (0.2M).
The nature of data set [8]: Half-life in whole human blood.
From the text: as §3
Data set [9] in a line: Acute toxicity, oral LD50. The format is in vivo. As to conditions: rat, in vivo, rats, read-out: LD50 orally in rats. The text has this: (§2) The acute toxicity of the pro-drugs were investigated.
Data set [10] concerns rats. Description: Gastroduodenal bleeding (fecal blood) after 21 days of oral dosing. As to conditions: 100 mg/kg per day orally for 21 days.
Data set [11] has as its system rats. Nature of the data set: Antipyretic activity, E. coli suspension as pyrogen, body temperature. It is filed as in vivo. To be noted: for body temperature t=0 min / body temperature t=90 min / body temperature t=180 min. / body temperature t=270 min.: in °C (unit assumed).
Protocol: Antipyretic activity: Rats received a sterilized E. coli suspension as a pyrogen. 56 rats were divided into 7 groups. The control group is group A. 2 hours later, Aspirin (ASA, B1 for 100mg/kg and B2 for 150mg/kg) and diethylaminoethyl acetylsalicylate.AcOH (DEAE-ASA, C1 for 100mg/kg and C2 for 150 mg) were administered orally and diethylaminoethyl acetylsalicylate.AcOH (DEAE-ASA, D1 for 100 mg and D2 for 150 mg/kg) were administered transdermally. The body temperature of rats was taken at 90 min. intervals before and after the administration of the test compounds.
A short description of data set [12]: In vitro penetration through human skin, modified Franz cells, HPLC.
The conditions of data set [13]: human, 20 % (suspension in the donor), pH 7.4.
Data set [14] is described as follows: physchem. To be noted: pH 7, aqueous buffer.
The conditions of data set [15]: hairless, mouse, in vivo.
For data set [16] the following is noted: cited from earlier work.
For data set [17], the system named is rats. To be noted: rat, in vivo, po, 100 mg/kg/day, 21 days.
A short description of data set [18]: physchem.
Data set [19] has as its system rats. Description: Acute toxicity, oral LD50. It is filed as in vivo. To be noted: unit printed as g.
From the text: as §2

Where [20] appears, read: 50 mg/kg transdermally, group D1.
Where [21] appears, read: 50 mg/kg, groups B1 (ASA) and C1 (DEAE-ASA orally), 30 minutes before acetic acid.
Setting [22] is: 100 mg/kg transdermally, group D2.
Setting [23] is: 100 mg/kg, groups B2 (ASA) and C2 (DEAE-ASA orally), 30 minutes before acetic acid.
The mark [24] stands for this setting: 50 mg/kg, groups B1 (ASA) and C1 (DEAE-ASA orally).
[25] abbreviates: 100 mg/kg, groups B2 (ASA) and C2 (DEAE-ASA orally).

Converted amounts (≈) assume the structure as drawn. Where two headings read alike, the source gives them in different places.

As usually defined, the solubility is the dissolved amount per volume that the medium holds. Read a low solubility as little dissolved substance. `CCN(CC)CCCNC(=O)c1ccccc1OC(C)=O` [N-diethylaminopropyl acetylsalicylamide.AcOH] had a solubility in data set [1] of 280 mg/mL (≈ 958 mM).
One may read the inhibition as the drop in the measured response relative to a control, in per cent. The half-life is the time needed for the level to fall by half in the phase considered. The low end stands for fast loss, the high end for slow loss. For orientation: LD50 means the dose expected to kill half of the subjects tested. Turning to `CCN(CC)CCOC(=O)c1ccccc1OC(C)=O` [diethylaminoethyl acetylsalicylate.AcOH], the “Anti-inflammatory activity (rate of swelling) compared with aspirin” value with rats [2] is recorded as “better Anti-inflammatory activity than that of aspirin”. Besides, the “difference of peak plasma levels” value in data set [3] (pro-drug donor versus acetylsalicylic acid donor) is “approximately 100 times”. In addition, the “peak plasma level of salicylic acid” value in [3] (topical, 30% in 1 mL isopropanol on 1 cm^2 of the back, hairless mice) is about 10 mg/mL. Moreover, the “peak plasma level times higher than the salicylate plasma level for effective analgesia” value in data set [3] (versus 0.15-0.3 mg/ml) is on record as 33-67 times. The “peak plasma level times higher than the salicylate plasma level for effective anti-inflammatory activity” value in data set [3] (versus 0.2-0.3 mg/ml) was 33-50 times. The “% (rate of writhings inhibition)” value came to 56% in the data set on mice [4] (setting [20]) and 70% with mice [4] (setting [22]). Also, the “No. of Writhings” value is 14.5 with mice [4] (setting [20]), 15.4 in the data set on mice [4] (setting [21]), 10.1 in the data set on mice [4] (setting [22]) and 11 in the data set on mice [4] (setting [23]). Moreover, the inhibition at 50 mg/kg in the data set with mice [4] (setting [24]) came out at 54%. The inhibition at 100 mg/kg in the data set with mice [4] (setting [25]) was 67%. In addition, the “analgetic activity compared with aspirin” value in the data set with mice [4] (writhing test, summary of Table 1) is reported as “better analgetic activity than aspirin”. The figures for the solubility in data set [5] and in data set [1] were over 300 mg/mL and 300 mg/mL (≈ 1070 mM), respectively. The “analgetic activity (prolongation time of pain threshold)” value with mice [6] (200 mg/kg orally (C)) and in the data set on mice [6] (200 mg/kg transdermally (D)) was “stronger analgetic activity” in each case. Moreover, the “pro-drug changed back to the drug itself” value in [7] is recorded as 80%. Further, the half-life in data set [8] (blood) is about 4 min. In addition, the median lethal dose (LD50) in [9] was found to be 2300 mg/kg. Besides, the average fecal blood result in the data set with rats [10] is “none”. For the same molecule, the “antipyretic activity compared with aspirin” value in the data set on rats [11] (100 mg/kg dose, summary of Table 2) was “some better than aspirin”. Also, the “body temperature t=0 min” value in the data set on rats [11] (100mg/kg orally) is 37.25±0.09; with rats [11] (100mg/kg transdermally), 37.19±0.07; in the data set on rats [11] (150mg/kg orally), 37.18±0.07; in the data set on rats [11] (150mg/kg transdermally), 37.33±0.05. Further, the “body temperature t=90 min” value was found to be 36.40±0.15 in the data set on rats [11] (100mg/kg orally), 36.40±0.05 with rats [11] (100mg/kg transdermally), 36.30±0.15 in the data set with rats [11] (150mg/kg orally) and 36.27±0.15 in the data set with rats [11] (150mg/kg transdermally). The “body temperature t=180 min.” value in the data set with rats [11] (100mg/kg orally) is on record as 36.50±0.09; in the data set with rats [11] (100mg/kg transdermally), 36.38±0.05; with rats [11] (150mg/kg orally), 36.28±0.07; in the data set on rats [11] (150mg/kg transdermally), 36.26±0.07. Moreover, the “body temperature t=270 min.” value with rats [11] (100mg/kg orally) is reported as 36.40±0.15; in the data set with rats [11] (100mg/kg transdermally), 36.40±0.15; in the data set on rats [11] (150mg/kg orally) it was 36.20±0.09; with rats [11] (150mg/kg transdermally), 36.22±0.08. Also, in the data set on rats [11] (summary of Table 2), the “antipyretic activity, transdermal versus oral administration” value is “better than oral administration”. Besides, the Apparent flux values in data set [12] (isolated human skin, Franz cells, donor 20% suspension or 20% solution in pH 7.4 phosphate buffer (0.2M)) is given as 100 mg/cm^2/h. In [12] (ratio versus acetylsalicylic acid), the “diffuses through human skin times faster than acetylsalicylic acid itself” value was about 400 times. Besides, in data set [12] (ratio versus ethyl acetylsalicylate), the “diffuses through human skin times faster than ethyl acetylsalicylate” value is on record as about 100 times.
With `CC(=O)Oc1ccccc1C(=O)O` [acetylsalicylic acid, reference compound], in [13], the Apparent flux values was found to be 0.25 mg/cm^2/h. Besides, the concentration in solution in the data set “physchem [14]” (solubility) was 0.01 mg/mL (≈ 0.0555 mM). Further, in the data set on mice [4] (setting [21]), the “No. of Writhings” value came out at 18.2. Besides, the “No. of Writhings” value in the data set on mice [4] (setting [23]) came out at 13.2. Also, the inhibition at 50 mg/kg in the data set on mice [4] (setting [24]) amounted to 45%. For the same molecule, in the data set with mice [4] (setting [25]), the inhibition at 100 mg/kg was 60%. The molecule further returned a half-life in [8] of 15 min. In data set [15], the “time to peak levels of salicylic acid in plasma after application of the donor systems” value is about 20 min. Moreover, in the data set on rats [11] (100mg/kg orally), the “body temperature t=0 min” value was 37.22±0.05, the “body temperature t=90 min” value worked out at 36.80±0.05, the “body temperature t=180 min.” value was 36.85±0.05 and the “body temperature t=270 min.” value is on record as 36.81±0.05. Besides, in the data set with rats [11] (150mg/kg orally), the “body temperature t=0 min” value is recorded as 37.30±0.06, the “body temperature t=90 min” value is 36.50±0.05, the “body temperature t=180 min.” value amounted to 36.59±0.05 and the “body temperature t=270 min.” value was found to be 36.55±0.05. The “half live in plasma” value in data set [16] is about 15 min. The average fecal blood in the data set on rats [17] was 5 mg of fecal blood per gram of feces.
`O=C(O)c1ccccc1O` [salicylic acid]: the “peak plasma level of salicylic acid” value in data set [15] is about 0.01 mg/mL.
`CCCN(CCC)CCOC(=O)c1ccccc1OC(C)=O` [dipropylaminoethyl acetylsalicylate.AcOH] yielded a solubility in data set [1] of 300 mg/mL (≈ 976 mM).
On the same count and under the same terms, in the case of `CC(=O)Oc1ccccc1C(=O)SCCN(C)C` [S-dimethylaminoethyl acetylthiosalicylate.AcOH] it was 320 mg/mL (≈ 1200 mM).
Still for that read-out and setting: with `CC(=O)Oc1ccccc1C(=O)NCCN(C)C` [N-dimethylaminoethyl acetylsalicylamide.AcOH] the figure was 350 mg/mL (≈ 1400 mM).
With `CC(=O)Oc1ccccc1C(=O)OCCN(C)C` [dimethylaminoethyl acetylsalicylate.AcOH], in “physchem [18]”, the solubility was found to be 350 mg/mL (≈ 1390 mM). Further, the “LD50 orally in rats” value in the data set on rats [19] was determined as 2.2 g.
For the molecule `CCOC(=O)c1ccccc1OC(C)=O` [ethyl acetylsalicylate], in data set [13], the Apparent flux values turned out to be 1 mg/cm^2/h; the “penetration rate difference between ethyl acetylsalicylate and acetylsalicylic acid” value was 4 times.
In data set [1], “S-diethylaminoethyl propionylthiosalicylate.AcOH” registered a Solubility in water of 280 mg/mL.

The values are drawn from EP2610242A1, “Positively charged water-soluble prodrugs of aspirin” (Techfields Biochem Co. Ltd, priority 2006, dated 2008).
